Laboratory results: patent publication US7795208B2, “Methods of using deacetylase inhibitors to promote cell differentiation and regeneration” (The Salk Institute for Biological Study, priority 2001, dated 2010)
Several values for one entry are separate records, joined by “and”; a condition that tells them apart may be missing. Equal values may be shown once.

What was measured:
C2C12 cells = assay: Differentiation and muscle protein expression of C2C12 myoblasts exposed to deacetylase inhibitors (MHC immunofluorescence, Western blot, RT-PCR, FACS); format: cell-based, mouse; settings: for Nuclei/MHC-Positive Cells (number of nuclei) / percentage of nuclei detected in MHC-positive cells: C2C12, DI 24 hours in GM, then DM without DI, Tr. 1 and Tr. 2; for MHC expression and frequency of MHC-positive multinucleated cells: undifferentiated myoblasts exposed in GM, differentiated in the absence of DI, vs untreated cells
Experimental: Mouse muscle myoblast C2C12 cells (obtained from the American Type Culture Collection, ATCC CRL-1772) and CC42 cells (from Dr. Kenneth Walsh, Tufts University School of Medicine) were cultured in DMEM supplemented with 20% fetal bovine serum, 2 mM glutamine and 1× kanamycin (growth medium, GM). Cellular differentiation was induced with DMEM supplemented with 2% horse serum and 1× insulin, transferring, selenium (Life Technologies). Human skeletal myocytes (CC-2561) were purchased from Clonetics. Stable C2C12 cell lines with integrated reporters are described in Wu, Z., et al., Mol Cell Biol 20:3951-64 (2000). The MCK-luc, 4RE-luc, MEF2 reporter constructs have been described in Puri, P. L., et al., EMBO Journal 16:369-83 (1997a) and Sartorelli, V., et al., Molecular & Cellular Biology 17:1010-26 (1997). The E2F-luc plasmid is described in Helin, K., et al., Genes Dev 7:1850-61 (1993). The MLC-lacZ-nls plasmid is described in Wu, et al. (2000). Dr. Stuart Schreiber (Harvard University) provided the vector expressing Flag-HDAC1, which is described in Taunton, J., et al., Science 272: 408-11 (1996). Transient transfections were performed using FuGENE 6 transfection reagent (Roche Molecular Biochemicals). Following transfections, luciferase activity was determined using the Dual-Luciferase reporter assay system (Promega) on a microtiter luminescence detection system (MLX, Dynex).
For immunoblotting, cell extracts were obtained after incubating the cells in standard lysis buffer. Western blots were probed with the following antibodies: anti-MHC (MF-20), anti-myogenin (FD5), and anti-tubulin (E7), obtained from the Developmental Studies Hybridoma Bank, University of Iowa. Primary antibodies were visualized with the ECL cheminoluminescent kit (Amersham). Cells were fixed and stained with anti-MHC MF-20 antibodies. Nuclei were visualized by 4′,6′-[…]-2-phenylindole (DAPI). FITC-conjugated or Texas red-conjugated secondary antibodies were employed to reveal the primary antibodies.
C2C12 and CC42 cells were exposed to sodium butyrate 5 mM (Sigma), trichostatin A 50 nM (Upstate Biotechnologies), or valproic acid 10 mM (Sigma) for 24 hours in GM (GM regimen). TSA was removed and the cells cultured in DM for 48 hrs before being analyzed. When indicated (DM regimen), the cells were exposed to deacetylase inhibitors when switched from GM to DM and cultured in their presence for 48 hrs.
Another striking effect induced by DI is their ability to increase the number of nuclei present in MHC positive cells. While approximately 15% of the total nuclei are present in elongated, MHC-positive myotubes not exposed to DI, approximately 75-80% of the total nuclei are detected in hypernucleated MHC-positive myotubes when these have been previously exposed to DI (see FIG. 1D and Table 1). In Table 1, C2C12 cells were either exposed to sodium butyrate, TSA, VPA or left untreated for 24 hours in GM. The medium was replaced with DM without DI, and MHC expression was detected by immunofluorescent staining. Nuclei were visualized with DAPI. The values in parenthesis indicate the percentage of nuclei detected in MHC-positive cells. The values are derived from two independent trials.

MLC3F-lacZ-nls construct = assay: β-Galactosidase assay of cells transfected with MLC3F-lacZ-nls; format: cell-based, mouse; settings: transfected cells exposed in GM, then DM 48 hours; vs non-treated cells
Experimental: FIGS. 4A-C illustrate that embryos exposed to DI display enhanced somitogenesis and increased muscle gene expression. […] Cells were then exposed to TSA (50 nM) in GM and subsequently switched to DM for 48 hours. Cells were stained to detect β-galactosidase activity. FIG. 4B is a picture of E 10.5 embryos derived from MLC1/3F-nLacZ transgenic mice exposed to either TSA or VPA treatment (see Example 1) and stained for 1 hour at 30° C. to detect β-galactosidase activity. […] FIG. 4C is a Western blot of extracts derived from total embryos exposed to either TSA or VPA; MHC is detected.
Cells transfected with MLC-lacZ-nls were washed twice in PBS, fixed in 4% paraformaldeheyde-PBS for 5 min, washed twice in PBS, and stained for 2-5 hrs with 5 mM potassium ferrycyanide, 5 mM potassium ferrocyanide, 2 mM MgCl2, 1 mg/ml X-gal (5-bromo-4-chloro-3-indolyl-β-D-galactoside).

mouse embryos = assay: Embryos of pregnant MLC1/3F-nLacZ mice exposed in utero (somitogenesis, muscle gene expression); format: in vivo
Experimental: MLC1/3F-nLacZ pregnant mice (E 8.5) received intra peritoneal injection of 15 μg of TSA (WAKO chemicals, Neuss Germany) or VPA (Sigma) at E 8.5 and E 9.5 as described in Faiella, A., et al., Hum Mol Genet 9:227-36 (2000), and Nervi, C., et al., Cancer Res 61:1247-9 (2001). VPA was dissolved in distilled water and administered at doses of 6 mg/mice (about 150 μg/ml) every 12 h at E 8.5, E 9, E 9.5, E 10 as described in Faiella et al. (2000). […] Mice were sacrificed at E 10.5, and the embryos were observed under a dissecting stereo-microscope to evaluate their viability, presence of external malformations, and number of somites. Embryos were fixed in 4% paraformaldehyde for histology and X-Gal staining or immunocytochemistry using antibodies against MyoD and myosin heavy chains as described in Tajbakhsh, S., et al., Neuron 13:813-21 (1994).
DI was administered intraperitoneally to pregnant mice (at a concentration of 0.5 to 1 mg/Kg for TSA and 200 mg/Kg for VPA) at post-implantation stages of E 8.5, and the pregnant mice were sacrificed at 10.5, when MyoD expression is clearly detectable in the myotomes. […] In Table 2, Somites of MLC1/3F-nLacZ mice (injected at day 8.5 and sacrificed at day 10.5) were scored after staining the embryos to detect β-galactosidase activity.

[1] = i.p. to pregnant mice at E 8.5, sacrificed at 10.5, 0.5 to 1 mg/Kg TSA, 200 mg/Kg VPA

| SMILES | Nuclei/MHC-Positive Cells (number of nuclei) (C2C12 cells) | percentage of nuclei detected in MHC-positive cells (C2C12 cells) | expression of myogenin and MHC, differentiation (C2C12 cells; C2C12 treated when cultured in DM, 48 hours) | apoptosis (reduced cell density) (C2C12 cells; cells exposed in DM) | MHC expression and frequency of MHC-positive multinucleated cells (C2C12 cells) | β-galactosidase-positive nuclei (MLC3F-lacZ-nls construct) | level of MLC-lacZ transgene expression (mouse embryos; E 10.5 embryos, vs control embryos) | # somites (β-galactosidase staining) (mouse embryos; MLC1/3F-nLacZ mice injected at day 8.5, sacrificed at day 10.5, TSA [1 mg/ml] (20 ul + 380 ul PBS), VPA 155 mM, one value per embryo, PBS controls 25-32) | levels of MHC in exposed embryos (Western blot) (mouse embryos; extracts of total embryos) | number of MLC expressing somites (mouse embryos; [1]) | number of MyoD expressing myotomes (mouse embryos; [1]) |
| --- | --- | --- | --- | --- | --- | --- | --- | --- | --- | --- | --- |
| CCCC(=O)[O-].[Na+] [Sodium Butyrate, sodium butyrate] | 230 and 210 | 83% and 84% | failed to activate expression of both myogenin and the myosin heavy chain (MHC) and to properly differentiate | high frequency of apoptosis | upregulated MHC expression and displayed a striking increased frequency of larger MHC-positive multinucleated cells |  |  |  |  |  |  |
| CCCC(CCC)C(=O)O [VPA, valproic acid] | 153 and 187 | 81% and 78% |  |  | effects undistinguishable from those exerted by sodium butyrate | increased β-galactosidase-positive nuclei | higher level of MLC-lacZ transgene expression | 35 and 36 and 33 and 34 | augmented the levels of MHC | consistently increased | consistently increased |
